Results as given in patent US20230118911A1, “PROTEOLYSIS TARGETING CHIMERA (PROTAC) FOR DEGRADATION OF AURORA A-KINASE” (Julius-Maximilians-Universitaet Wuerzburg, priority 2020, published 2023).
Blank lines part the entries; values can stand above or below the molecule they belong to.

Assays:
Aurora-A [1] = target: T1, Aurora-A (Homo sapiens, UniProt O14965); experiment: Immunoblot of endogenous Aurora-A in MV4-11 cells after a single dose of degrader; assay type: cell-based; parameters: resulting in degradation of endogenous Aurora-A; endogenous in cells; host or cells: MV4-11
T1 sequence (O14965 1-403): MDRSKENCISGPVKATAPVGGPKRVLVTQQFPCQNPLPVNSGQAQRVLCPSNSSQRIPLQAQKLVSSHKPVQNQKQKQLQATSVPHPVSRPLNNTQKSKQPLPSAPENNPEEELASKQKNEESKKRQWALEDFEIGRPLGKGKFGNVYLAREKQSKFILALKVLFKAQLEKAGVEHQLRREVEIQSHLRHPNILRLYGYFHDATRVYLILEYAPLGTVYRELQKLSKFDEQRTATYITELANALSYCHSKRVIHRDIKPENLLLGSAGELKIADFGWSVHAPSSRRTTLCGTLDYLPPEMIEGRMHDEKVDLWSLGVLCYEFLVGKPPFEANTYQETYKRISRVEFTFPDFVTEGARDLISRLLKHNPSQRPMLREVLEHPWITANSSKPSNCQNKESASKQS
Description: (§1) Then, the cells were lysed in RIPA lysis buffer (50 mM HEPES pH 7.9, 140 mM NaCl, 1 mM EDTA, 1% Triton X-100, 0.1% SDS, 0.1% sodium deoxycholate) containing protease and phosphatase inhibitors (Sigma) and incubated for 20 minutes at 4° C. in head-over-tail. Lysates were cleared by centrifugation. Protein quantification was done using BCA assay and equal amounts of proteins were separated by BisTris-PAGE and transferred to PVDF membranes (Millipore). The membranes were blocked with 5% (w/v) nonfat dry milk dissolved in TBS-T (20 mM Tris/HCl, pH 7.5, 150 mM NaCl, and 0.1% (v/v) Tween 20) at RT for 1 hour and then incubated with the primary antibody overnight at 4° C. Visualization was done with HRP-labeled secondary antibodies and detected using Chemiluminescent HRP substrate (Millipore) in LAS3000 or LAS4000 Mini (Fuji). The signal was quantified using ImageJ (version 1.52q) or Image Studio Lite (LI-COR Biosciences, Version 5.2.5). […] Error bars represent standard deviations of four biological replicate experiments.

MV4-11 cells [2] = experiment: alamarBlue cell viability assay; assay type: cell-based; settings: Homo sapiens, 1 μM (refreshed every 24 h), 72 hours, read-out: viable cells compared to control cells
Description: The alamarBlue assay (Thermo Fisher Scientific) was performed according to manufacturer's instruction using HS Cell Viability Reagent. The fluorescence was measured in Tecan Infinite-200 using a fluorescence excitation wavelength of 550 and an emission of 600 nm.

MV4-11 cells [3] = experiment: Annexin-PI FACS apoptosis assay in MV4-11 cells; assay type: cell-based, human; settings: 0.5 μM, 72 hours
Description: (§2) For Annexin-PI FACS, the medium in which the cells were cultured was combined with the cells.
(§3) The cells were washed once with ice-cold PBS, resuspended in 100 μl Annexin V Binding buffer (10 mM HEPES pH 7.4, 140 mM NaCl, 2.5 mM CaCl2)) with 2 μl of Annexin V/Pacific Blue dye and incubated for 15 minutes in the dark at room temperature. 400 μl Annexin V Binding buffer with propidium iodide (18.5 μM) was added and the samples were stored cold and in the dark until analysis.

IMR5 cells = experiment: Annexin-PI FACS apoptosis assay in IMR5 cells with or without Aurora-A T217D expression; settings: 0.5 μM, 72 hours, doxycycline-induced Aurora-A T217D vs EtOH control
Description: as §2, §3
Aurora-AT^217D is a functional mutant of Aurora-A. IMR5 cells express Aurora-A^T217D upon incubation with doxycycline (Dox) but not upon incubation with ethanol (control-EtOH).

Aurora-A [4] = target: T1, Aurora-A; experiment: Immunoblot of endogenous Aurora-A, MV4-11 cells treated with various concentrations for 6 hours; assay type: cell-based; parameters: resulting in degradation of endogenous Aurora-A; endogenous in cells; host or cells: MV4-11
Description: as §1
Afterwards, cells were lysed in RIPA lysis buffer (50 mM HEPES pH 7.9, 140 mM NaCl, 1 mM EDTA, 1% Triton X-100, 0.1% SDS, 0.1% sodium deoxycholate) containing protease and phosphatase inhibitors (Sigma) and incubated for 20 minutes at 4° C. in head-over-tail. Further processing of resulting cell lysates and immunoblotting was performed as described above.

reduction of Aurora-A protein level (Aurora-A [1]; single dose (0.1 μM, 1 μM), compared to control cells): 62%
Molecule: thalidomide-PEG3-alisertib [JB158]

Aurora-A levels (Aurora-A [4]; 10 nM): significantly decreased
Aurora-A degradation (Aurora-A [4]; 100 nM and 1 μM): almost complete degradation
Molecule: COc1cc(Nc2ncc3c(n2)-c2ccc(Cl)cc2C(c2c(F)cccc2OC)=NC3)ccc1C(=O)NCCOCCOCCNC(=O)COc1cccc2c1C(=O)N(C1CCC(=O)NC1=O)C2=O (stereo not drawn) [JB170, thalidomide-PEG2-alisertib]
viability at 1 µM (MV4-11 cells [2]): 32%
Annexin-positive cells (MV4-11 cells [3]): 56%
effect of Aurora-A T217D expression on induced apoptosis (IMR5 cells): completely reverted the induction of apoptosis
Hook effect on Aurora-A depleting activity (Aurora-A [4]; high concentrations): reversal of the Aurora-A depleting activity was observed

Molecule: COc1cc(Nc2ncc3c(n2)-c2ccc(Cl)cc2C(c2c(F)cccc2OC)=NC3)ccc1C(=O)NCCOCCOCCC(=O)N[C@H](C(=O)N1C[C@H](O)C[C@H]1C(=O)NCc1ccc(-c2scnc2C)cc1)C(C)(C)C [JB160, VHL-PEG2-alisertib]
Aurora-A steady-state levels (Aurora-A [1]; single dose, VHL-ligand-based degraders): neither of the VHL-ligand-based degraders JB160 and JB161 reduced Aurora-A steady-state levels

Molecule: COc1cc(Nc2ncc3c(n2)-c2ccc(Cl)cc2C(c2c(F)cccc2OC)=NC3)ccc1C(=O)O [alisertib, reference compound]
Aurora-A levels (Aurora-A [4]; 1 μM): did not decrease Aurora-A levels, but induced a significant increase
